Broadly, the Km is the substrate concentration at which the rate is half of its maximum.

Test [1] deals with T1, PEH01S_RS21285 (type 2 L-KDFDH).
T1 construct: pQE-80L, N-terminal (His)6-tag, expressed in E. coli, Ni-NTA
In words: spectrophotometric NADH formation at […] nm, Lineweaver-Burk. Format: biochemical, Paenibacillus ehimensis. The following applies: 1.5 mM NAD+, 50 mM Tris-HCl pH 8.0, 30 °C.

Test [2] has as its system T2, PSMK_RS04265 (type 3 L-KDFDH).
T2 construct: pQE-80L, N-terminal (His)6-tag, expressed in E. coli, Ni-NTA
Described as above. It is filed as biochemical, Phycisphaera mikurensis. The following applies: 1.5 mM NAD+, 50 mM Tris-HCl pH 8.0, 30 °C.

On to `C[C@H](O)[C@@H](O)CC(=O)C(=O)O` [L-KDF], for which the Km is 0.529 ± 0.021 mM in test [1] and 6.08 ± 0.15 mM in test [2].

These data come from paper PMC11199699 (Scientific Reports, 2024).
